Where two headings read alike, the source gives them in different places.

Data set [1] has as its system SMN protein in spinal muscular atrophy (SMA) patient fibroblasts (GM03813, Coriell). The data set can be described thus: SMN protein assay, Mesoscale Discovery (MSD). The following applies: SMA patient fibroblasts GM03813, 48 hours, MSD; read-out: SMN2 protein EC50. It is filed as cell-based, human. In outline: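 Absolute SMN levels were quantified by MSD against an SMN protein standard curve (1 μg/ml to 19.5 pg/ml) run on each plate. Samples were lysates of GM03813 patient fibroblasts (7000 cells/well) treated 48 hours with compound doses from 2.5 μM down to 0.6 nM.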

Data set [2] concerns mHTT protein in GM04724 (CAG 70/20) Huntington's disease patient lymphoblast cells. The data set can be described thus: mHTT protein assay, 2B7-MW1 assay via Mesoscale Discovery (MSD). In kind it is cell-based, human. Particulars: GM04724 Huntington's disease patient lymphoblasts. In outline:
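Signal from the 2B7-MW1 antibody pair on MSD, rising with polyQ length and smaller HTT fragments, measured mHTT after 48 h compound exposure (0.6 nM–10 μM) in GM04724 cells. A parallel replicate plate gave CellTiter Glo viability.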

The test system of data set [3] is MDR1-MDCK cell monolayers. The data set can be described thus: Blood-brain-barrier (BBB) penetration potential via MDCK-MDR1 permeability assay. The following applies: for MDCK-MDR1: % Recov A-B / MDCK-MDR1: Papp A-B: A-B direction; for MDCK-MDR1: % Recov B-A / MDCK-MDR1: Papp B-A: B-A direction; for MDCK-MDR1: Efflux: efflux ratio.
For data set [4], the system named is Huntingtin (HTT) transcripts, cryptic exon within intron 49, in GM04724 (CAG 70/20) Huntington's disease patient lymphoblasts. The data set can be described thus: Quantitative splicing assay (HTT), qPCR. In kind it is cell-based, human. Particulars: 24 h, qPCR, read-out: HTT Splicing: E49-50 EC50. The essentials:
(§1)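 TaqMan qPCR on cell-lysate cDNA quantifies cryptic-exon inclusion from HTT intron 49. Lymphoblasts plated at 50,000 cells/well had received compound for 24 h, 0.15 nM-2.5 uM range, 0.1% DMSO.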
Background: Quantitative PCR measures a nucleic acid by following its amplification.

Data set [5] concerns SMN FL and SMN Δ7 in spinal muscular atrophy (SMA) patient fibroblasts (GM03813, Coriell). Put plainly: Quantitative splicing assay (SMN), qPCR. Particulars: Homo sapiens, Fibroblast, 24 h, SMA patient fibroblasts GM03813, 24 h, qPCR; read-out: SMN2 Splicing FL EC50. It is filed as cell-based, human. How it is done:
Spinal muscular atrophy (SMA) patient fibroblasts (GM03813, Coriell) are plated in 96-well plates at 50,000 cells/well. […] Treated cells are lysed and cDNA synthesized using the Fast Advanced Cells-to-Ct kit (Thermofisher A35378) according to the manufacturer's instructions. 2 μL of each cDNA are used in qPCR reactions. […] Reactions are run in a Quant Studio 6 qPCR instrument with default settings.

Data set [6] has as its system MDR1 (P-gp). The data set can be described thus: Blood-brain-barrier (BBB) penetration potential via MDCK-MDR1 permeability assay. The following applies: dog.
For data set [7], the system named is MDR1. The data set is described as above. Particulars: dog, MDCK-MDR1, pH 7.4, MDCK-MDR1: Efflux, efflux ratio.
Data set [8] can be described thus: Quantitative splicing assay (HTT), qPCR. It is filed as cell-based, human. Particulars: Homo sapiens; GM04724 lymphoblasts, 24 h, qPCR; read-out: HTT Splicing: E49-50 EC50. In outline: as §1
For data set [9], the system named is MDR1-MDCK cell monolayers. The following applies: dog, MDCK-MDR1, 120 min, 5 μM, pH 7.4.
Data set [10] deals with MDR1 (P-gp). Put plainly: in vitro. Particulars: dog, MDCK-MDR1, pH 7.4.
For data set [11], the system named is MDR1. Put plainly: in vitro. Particulars: dog, MDCK-MDR1, pH 7.4.

In the case of `CN(c1ccc(-c2ccc(-c3cn[nH]c3)cc2O)nn1)C1CC2COCC(N2)C1F` (stereo not drawn) [Compound 8B], the EC50 in data set [1] was 16 to 50 nM. In [2], this compound registered an EC50 of 0.01 to 15 nM. In addition, in data set [3], the “MDCK-MDR1: % Recov A-B” value came to 84%; the “MDCK-MDR1: Papp A-B” value is reported as 2.04 10^−6, cm/s; the “MDCK-MDR1: % Recov B-A” value is on record as 98%; the “MDCK-MDR1: Papp B-A” value was 39.1 10^−6, cm/s. The “MDCK-MDR1: Efflux” value in [3] turned out to be 19. Also, the EC50 in [4] is 0.01 to 15 nM. Moreover, in [5], the EC50 was 16 to 50 nM.
Take `CN(c1ccc(-c2ccc(-c3cn[nH]c3)cc2O)nn1)C1CC2COCC(N2)C1F` (stereo not drawn) [Compound 8A]: the figures for the EC50 in data set [1], in [2] and in data set [4] were 101 to 500 nM, 0.01 to 15 nM and 16 to 50 nM, respectively. Further, in data set [3], the “MDCK-MDR1: % Recov A-B” value is 87%. In addition, in [3], the “MDCK-MDR1: % Recov B-A” value is listed as 93%. In addition, the Papp A→B at 120 min, 5 μM with MDR1 (P-gp) [6] (MDCK-MDR1, pH 7.4, MDCK-MDR1: Papp A-B, A-B direction) amounted to 1.67 ×10⁻⁶ cm/s. In addition, the Papp B→A at 120 min, 5 μM in the data set with MDR1 (P-gp) [6] (MDCK-MDR1, pH 7.4, MDCK-MDR1: Papp B-A, B-A direction) came out at 59.3 ×10⁻⁶ cm/s. For the same compound, in the data set with MDR1 [7], the efflux ratio at 120 min, 5 μM stood at 36.
Consider `CN(c1ccc(-c2cc3ccn(C)c(=O)c3cc2O)nn1)[C@H]1C[C@@H]2CC[C@H]([C@H]1F)N2C` (single isomer, unassigned) [Compound 97B], for which, in data set [1], the EC50 lay within 101 to 500 nM. For the same compound, in data set [2], the EC50 lay within 101 to 500 nM. Further, the EC50 in data set [8] was 101 to 500 nM. Moreover, in [9], the “MDCK-MDR1: % Recov A-B” value is reported as 85% and the “MDCK-MDR1: % Recov B-A” value was 83%. Besides, in the data set with MDR1 (P-gp) [10], the Papp A→B at 120 min, 5 μM came out at 1.96 ×10⁻⁶ cm/s and the Papp B→A at 120 min, 5 μM was 53.1 ×10⁻⁶ cm/s. Besides, the efflux ratio at 120 min, 5 μM in the data set with MDR1 [11] is 27.
Regarding `CN(c1ccc(-c2ccc(-c3cnn(C)c3)cc2O)nn1)C1CC2COCC(N2)C1F` (single isomer, unassigned) [Compound 80B], the EC50 in data set [1] fell in the range of 101 to 500 nM. Also, the EC50 in data set [2] lay in the range of 16 to 50 nM. In data set [3], the “MDCK-MDR1: % Recov A-B” value came to 76%; the “MDCK-MDR1: Papp A-B” value is listed as 6.01 10^−6, cm/s; the “MDCK-MDR1: % Recov B-A” value amounted to 87%; the “MDCK-MDR1: Papp B-A” value is listed as 40.8 10^−6, cm/s. Moreover, the “MDCK-MDR1: Efflux” value in [3] is 7. Moreover, the EC50 in data set [4] was 51 to 100 nM.

What is called EC50 is the concentration that produces a half-maximal response. Usually Papp A→B stands for the apparent permeability from the apical to the basolateral side of a cell layer. Lower therefore signals slow passage. Broadly, the Papp B→A is the apparent permeability from the basolateral to the apical side of a cell layer. By efflux ratio is commonly meant a quotient of directional permeabilities that is used to spot active efflux.

(Values after patent publication US12509460B2 (Skyhawk Therapeutics, Inc., priority 2019, dated 2025).)
